Assay results published in publication PMC7421780 (Future Medicinal Chemistry, 2020).
In brackets after ≈: the same amount, converted by molar mass.

What was measured:
Mtb H37Rv [1] = experiment: Primary screen: MIC, IC50 and IC90 under aerobic conditions; type: cell-based; details: Mycobacterium tuberculosis
Mtb H37Rv [2] = experiment: Secondary assay: MIC, IC50 and IC90 repeated at lower starting concentrations; type: cell-based; details: Mycobacterium tuberculosis; for MIC: read-out: MIC aerobic condition
NRP Mtb H37Rv = experiment: microbe, parasite or virus in culture; type: cell-based; details: Mycobacterium tuberculosis
intracellular Mtb H37Rv = experiment: microbe, parasite or virus in culture; type: cell-based; details: Mycobacterium tuberculosis; for IC50: THP-1, read-out: IC50 intracell; for IC90: THP-1, read-out: IC90 intracell
in vitro = details: human
[3] = In vitro microsomal stability assay; details: Human, 1 μM
Mtb H37Rv [4] = experiment: Minimal bactericidal concentration; type: cell-based, Mycobacterium tuberculosis; details: Mtb H37Rv aerobic
Mycobacterium avium = experiment: MIC against nontuberculous mycobacteria, Alamar blue; type: cell-based; details: Mycobacterium avium
Mycobacterium abscessus = experiment: MIC, IC50, IC90 against nontuberculous mycobacteria; type: cell-based; details: for IC50 / IC90 / MIC: Mycobacteroides abscessus

SMILES | IC50 (Mtb H37Rv [1]) [µM] | IC90 (Mtb H37Rv [1]) [µM] | MIC (Mtb H37Rv [1]) [µM] | IC50 (Mtb H37Rv [2]) [µM] | IC90 (Mtb H37Rv [2]) [µM] | MIC (Mtb H37Rv [2]) [µM] | IC50 (NRP Mtb H37Rv; Low oxygen) [µM] | IC90 (NRP Mtb H37Rv; Low oxygen) [µM] | MIC (NRP Mtb H37Rv; Low oxygen) [µM] | IC50 (NRP Mtb H37Rv; Normal oxygen) [µM] | IC90 (NRP Mtb H37Rv; Normal oxygen) [µM] | MIC (NRP Mtb H37Rv; Normal oxygen) [µM] | IC50 (intracellular Mtb H37Rv) [µM] | IC90 (intracellular Mtb H37Rv) [µM] | IC50 (in vitro) [µM] | other results
O=[N+]([O-])c1cn(Cc2cccc(Cn3cnc([N+](=O)[O-])c3)n2)cn1 [Compound 2b, 2,6-bis((4-nitro-1H-imidazol-1-yl)methyl)pyridine] | 77 | 100 | 92 (≈ 30.3 µg/mL) | 93 | 100 | 101 (≈ 33.3 µg/mL) | 26 | 91 | 200 (≈ 65.9 µg/mL) | > 200 | > 200 | > 200 | > 200 | > 200 | > 50 | 
O=C(C[n+]1cn(Cc2cccc(Cn3c[n+](CC(=O)c4ccc(Cl)cc4)c4ccccc43)n2)c2ccccc21)c1ccc(Cl)cc1 [Compound 6e, 1,1′-(pyridine-2,6-diylbis(methylene))bis(3-(2-(4-chlorophenyl)-2-oxoethyl)-1H-benzo[d]imidazol-3-ium) bromide] | 7.9 | 18 | 17 |  |  |  |  |  |  |  |  |  |  |  |  | 
O=C(C[n+]1ccn(Cc2cccc(Cn3cc[n+](CC(=O)c4ccc(Cl)cc4)c3)n2)c1)c1ccc(Cl)cc1 [Compound 4e, 1,1′-(pyridine-2,6-diylbis(methylene))bis(3-(2-(4-chlorophenyl)-2-oxoethyl)-1H-imidazol-3-ium) bromide] | 34 | 63 | 51 |  |  |  |  |  |  |  |  |  |  |  |  | 
COc1ccc(C(=O)C[n+]2ccn(Cc3cccc(Cn4cc[n+](CC(=O)c5ccc(OC)cc5)c4)n3)c2)cc1 [Compound 4g, 1,1′-(pyridine-2,6-diylbis(methylene))bis(3-(2-(4-methoxyphenyl)-2-oxoethyl)-1H-imidazol-3-ium) bromide] | 160 | > 200 | > 200 |  |  |  |  |  |  |  |  |  |  |  |  | 
COC(=O)C[n+]1cn(Cc2cccc(Cn3c[n+](CC(=O)OC)c4ccccc43)n2)c2ccccc21 [Compound 6a, 1,1′-(pyridine-2,6-diylbis(methylene))bis(3-(2-methoxy-2-oxoethyl)-1H-benzo[d]imidazol-3-ium) bromide] | > 200 | > 200 | > 200 |  |  |  |  |  |  |  |  |  |  |  |  | 
COc1ccc2c(c1)[C@]13CCCC[C@@H]1[C@H](C2)N(C)CC3 [Dextromethorphan, reference compound] |  |  |  |  |  |  |  |  |  |  |  |  |  |  |  | NADPH-free CLint [3]: <12.8 µL/min/mg; NADPH-free T1/2 [3]: >3 h
O=C(C[n+]1ccn(Cc2cccc(Cn3cc[n+](CC(=O)c4ccc([N+](=O)[O-])cc4)c3)n2)c1)c1ccc([N+](=O)[O-])cc1.[Br-].[Br-] [Compound 4f, 1,1′-(pyridine-2,6-diylbis(methylene))bis(3-(2-(4-nitrophenyl)-2-oxoethyl)-1H-imidazol-3-ium) bromide] | 38 | 71 | 58 | 45 | 140 | 104 | 25 | 65 | 183 | 49 | 78 | 129 | 26 | 48 | > 50 | mechanism of action (bacteriostatic or bactericidal) (Mtb H37Rv [4]): bactericidal; MIC (Mycobacterium avium): > 200 µM; activity against M. abscessus (in words) (Mycobacterium abscessus): showed activity; IC50 (Mycobacterium abscessus): 89 µM; IC90 (Mycobacterium abscessus): 97 µM; MIC (Mycobacterium abscessus): 110 µM
NC(=O)C[n+]1cn(Cc2cccc(Cn3c[n+](CC(N)=O)c4ccccc43)n2)c2ccccc21 [Compound 6b, 1,1′-(pyridine-2,6-diylbis(methylene))bis(3-(2-amino-2-oxoethyl)-1H-benzo[d]imidazol-3-ium) iodide] | 180 | > 200 | > 200 |  |  |  |  |  |  |  |  |  |  |  |  | 
NNC(=O)c1ccncc1 [Isoniazid, reference compound] |  |  |  |  |  |  |  |  |  |  |  |  | 0.23 | 0.29 |  | 
O=C(C[n+]1cn(Cc2cccc(Cn3c[n+](CC(=O)c4ccccc4)c4ccccc43)n2)c2ccccc21)c1ccccc1.[Br-].[Br-] [Compound 6c, 1,1′-(pyridine-2,6-diylbis(methylene))bis(3-(2-oxo-2-phenylethyl)-1H-benzo[d]imidazol-3-ium) bromide] | 25 | 60 | 56 | 34 | 110 | 87 | 16 | 130 | 200 | 17 | 60 | > 200 | 37 | > 50 | > 50 | mechanism of action (bacteriostatic or bactericidal) (Mtb H37Rv [4]): bactericidal; MIC (Mycobacterium avium): > 200 µM; activity against M. abscessus (in words) (Mycobacterium abscessus): showed activity; IC50 (Mycobacterium abscessus): 120 µM; IC90 (Mycobacterium abscessus): 200 µM; MIC (Mycobacterium abscessus): > 200 µM
